PubChem BioAssay AID328 (DTP/NCI, 2004)
Toxic doses and inconclusive results are not listed. Rule for the calls: active = survival T/C of 150% or more; inactive = T/C below 125% in these data.

Tested on: BDF1 mice, P388 leukemia ip, median survival T/C
Test: NCI In Vivo Anticancer Drug Screen. Data for tumor model P388 Leukemia (intraperitoneal) in B6D2F1 (BDF1) mice
Details: endpoint: median survival time, higher = longer survival
In short: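 Mice carrying the transplantable tumour receive compound or vehicle. Survival is followed in each arm, and the treated measure is divided by the vehicle measure.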

Measured: T/C

COC(=O)C1C(=O)COC1C (stereo unspecified)
inactive: dose: 12.5 mg/kg/injection, schedule: Q01DX005 (ip), vehicle: saline with Tween-80 109 % of control | dose: 25.0 mg/kg/injection, schedule: Q01DX005 (ip), vehicle: saline with Tween-80 112 % of control | dose: 50.0 mg/kg/injection, schedule: Q01DX005 (ip), vehicle: saline with Tween-80 110 % of control

O=C(O)C(CCCCC1CCCCC1)CCC1CCCCC1 (stereo unspecified)
inactive: dose: 50.0 mg/kg/injection, schedule: Q01DX001 (ip), vehicle: saline with Tween-80 100 % of control | dose: 100.0 mg/kg/injection, schedule: Q01DX001 (ip), vehicle: saline with Tween-80 100 % of control | dose: 200.0 mg/kg/injection, schedule: Q01DX001 (ip), vehicle: saline with Tween-80 100 % of control

C[C@]12CC[C@H](O)C[C@@]1(O)CC[C@@H]1[C@@H]2CC[C@]2(C)[C@@H](c3ccc(=O)oc3)CC[C@]12O
inactive: dose: 1.25 mg/kg/injection, schedule: Q01DX009 (ip), vehicle: Klucel (hydroxypropylcellulose) (HPC) 93 % of control | dose: 2.5 mg/kg/injection, schedule: Q01DX009 (ip), vehicle: Klucel (hydroxypropylcellulose) (HPC) 94 % of control | dose: 5.0 mg/kg/injection, schedule: Q01DX009 (ip), vehicle: Klucel (hydroxypropylcellulose) (HPC) 99 % of control | dose: 6.2 mg/kg/injection, schedule: Q01DX010 (ip), vehicle: carboxymethylcellulose (CMC) 105 % of control | dose: 10.0 mg/kg/injection, schedule: Q01DX009 (ip), vehicle: Klucel (hydroxypropylcellulose) (HPC) 101 % of control | dose: 12.5 mg/kg/injection, schedule: Q01DX010 (ip), vehicle: carboxymethylcellulose (CMC) 90 % of control | dose: 20.0 mg/kg/injection, schedule: Q01DX009 (ip), vehicle: Klucel (hydroxypropylcellulose) (HPC) 105 % of control | dose: 25.0 mg/kg/injection, schedule: Q01DX010 (ip), vehicle: carboxymethylcellulose (CMC) 100 % of control

CC(C)(C)P(O)(=S)c1ccccc1 (stereo unspecified) (tested in a mixture with another compound)
inactive: dose: 50.0 mg/kg/injection, schedule: Q01DX005 (ip), vehicle: saline 94 % of control | dose: 100.0 mg/kg/injection, schedule: Q01DX005 (ip), vehicle: saline 93 % of control | dose: 200.0 mg/kg/injection, schedule: Q01DX005 (ip), vehicle: saline 100 % of control

Cc1ccc2nc(-c3ccc(CSC(=N)N)cc3)oc(=O)c2c1
inactive: dose: 0.78 mg/kg/injection, schedule: Q01DX009 (ip), vehicle: saline with Tween-80 96 % of control | dose: 1.56 mg/kg/injection, schedule: Q01DX009 (ip), vehicle: saline with Tween-80 99 % of control | dose: 3.12 mg/kg/injection, schedule: Q01DX009 (ip), vehicle: saline with Tween-80 96 % of control

O=C(O)/C=C/C(=O)Nc1ccc(Cl)c(Cl)c1
inactive: dose: 25.0 mg/kg/injection, schedule: Q01DX009 (ip), vehicle: Klucel (hydroxypropylcellulose) (HPC) 104 % of control | dose: 50.0 mg/kg/injection, schedule: Q01DX009 (ip), vehicle: Klucel (hydroxypropylcellulose) (HPC) 111 % of control | dose: 100.0 mg/kg/injection, schedule: Q01DX009 (ip), vehicle: Klucel (hydroxypropylcellulose) (HPC) 111 % of control

C=C1CC(OC(=O)c2ccc([N+](=O)[O-])cc2)C1
inactive: dose: 50.0 mg/kg/injection, schedule: Q01DX009 (ip), vehicle: saline with Tween-80 111 % of control | dose: 100.0 mg/kg/injection, schedule: Q01DX009 (ip), vehicle: saline with Tween-80 111 % of control | dose: 200.0 mg/kg/injection, schedule: Q01DX009 (ip), vehicle: saline with Tween-80 90 % of control

O=C(O)c1ccc(O)c(=O)cc1
inactive: dose: 12.5 mg/kg/injection, schedule: Q01DX001 (ip), vehicle: saline with Tween-80 102 % of control

CC(=O)NNC(=O)c1ccccn1
inactive: dose: 4.0 mg/kg/injection, schedule: Q03HX024 (ip), vehicle: saline 100 % of control | dose: 8.0 mg/kg/injection, schedule: Q03HX008 (ip), vehicle: saline 100 % of control | dose: 8.0 mg/kg/injection, schedule: Q03HX016 (ip), vehicle: saline 95 % of control | dose: 8.0 mg/kg/injection, schedule: Q03HX024 (ip), vehicle: saline 90 % of control | dose: 16.0 mg/kg/injection, schedule: Q03HX008 (ip), vehicle: saline 90 % of control | dose: 16.0 mg/kg/injection, schedule: Q03HX016 (ip), vehicle: saline 90 % of control | dose: 16.0 mg/kg/injection, schedule: Q03HX024 (ip), vehicle: saline 100 % of control | dose: 19.0 mg/kg/injection, schedule: Q01DX010 (ip), vehicle: water 95 % of control | dose: 32.0 mg/kg/injection, schedule: Q01DX009 (ip), vehicle: saline 90 % of control | dose: 32.0 mg/kg/injection, schedule: Q01DX009 (oral), vehicle: saline 90 % of control | dose: 32.0 mg/kg/injection, schedule: Q03HX008 (ip), vehicle: saline 95 % of control | dose: 32.0 mg/kg/injection, schedule: Q03HX016 (ip), vehicle: saline 90 % of control | dose: 32.0 mg/kg/injection, schedule: Q03HX024 (ip), vehicle: saline 90 % of control | dose: 32.0 mg/kg/injection, schedule: Q04DX003 (ip), vehicle: saline 90 % of control | dose: 38.0 mg/kg/injection, schedule: Q01DX010 (ip), vehicle: water 100 % of control | dose: 50.0 mg/kg/injection, schedule: Q01DX009 (ip), vehicle: water 113 % of control | dose: 50.0 mg/kg/injection, schedule: Q01DX009 (oral), vehicle: water 109 % of control | dose: 64.0 mg/kg/injection, schedule: Q01DX001 (ip), vehicle: saline 90 % of control | dose: 64.0 mg/kg/injection, schedule: Q01DX001 (oral), vehicle: saline 90 % of control | dose: 64.0 mg/kg/injection, schedule: Q01DX009 (ip), vehicle: saline 90 % of control | dose: 64.0 mg/kg/injection, schedule: Q01DX009 (oral), vehicle: saline 90 % of control | dose: 64.0 mg/kg/injection, schedule: Q03HX008 (ip), vehicle: saline 95 % of control | dose: 64.0 mg/kg/injection, schedule: Q03HX016 (ip), vehicle: saline 90 % of control | dose: 64.0 mg/kg/injection, schedule: Q03HX024 (ip), vehicle: saline 90 % of control | dose: 64.0 mg/kg/injection, schedule: Q04DX003 (ip), vehicle: saline 100 % of control | dose: 64.0 mg/kg/injection, schedule: Q08DX002 (ip), vehicle: saline 90 % of control | dose: 75.0 mg/kg/injection, schedule: Q01DX010 (ip), vehicle: water 100 % of control | dose: 100.0 mg/kg/injection, schedule: Q01DX009 (oral), vehicle: water 109 % of control | dose: 128.0 mg/kg/injection, schedule: Q01DX001 (ip), vehicle: saline 100 % of control | dose: 128.0 mg/kg/injection, schedule: Q01DX001 (oral), vehicle: saline 95 % of control | dose: 128.0 mg/kg/injection, schedule: Q01DX009 (ip), vehicle: saline 95 % of control | dose: 128.0 mg/kg/injection, schedule: Q01DX009 (oral), vehicle: saline 90 % of control | dose: 128.0 mg/kg/injection, schedule: Q04DX003 (ip), vehicle: saline 90 % of control | dose: 128.0 mg/kg/injection, schedule: Q08DX002 (ip), vehicle: saline 90 % of control | dose: 256.0 mg/kg/injection, schedule: Q01DX001 (ip), vehicle: saline 90 % of control | dose: 256.0 mg/kg/injection, schedule: Q01DX001 (oral), vehicle: saline 90 % of control | dose: 256.0 mg/kg/injection, schedule: Q04DX003 (ip), vehicle: saline 95 % of control

CCOc1ccc(C(/C(Cl)=N/O)C(Cl)(Cl)Cl)cc1 (stereo unspecified)
inactive: dose: 5.5 mg/kg/injection, schedule: Q01DX009 (ip), vehicle: Klucel (hydroxypropylcellulose) (HPC) 109 % of control | dose: 6.25 mg/kg/injection, schedule: Q04DX003 (ip), vehicle: Klucel (hydroxypropylcellulose) (HPC) 100 % of control | dose: 8.2 mg/kg/injection, schedule: Q01DX009 (ip), vehicle: Klucel (hydroxypropylcellulose) (HPC) 100 % of control | dose: 12.5 mg/kg/injection, schedule: Q04DX003 (ip), vehicle: Klucel (hydroxypropylcellulose) (HPC) 95 % of control | dose: 25.0 mg/kg/injection, schedule: Q04DX003 (ip), vehicle: Klucel (hydroxypropylcellulose) (HPC) 100 % of control | dose: 35.0 mg/kg/injection, schedule: Q04DX003 (ip), vehicle: Klucel (hydroxypropylcellulose) (HPC) 120 % of control | dose: 55.0 mg/kg/injection, schedule: Q04DX003 (ip), vehicle: Klucel (hydroxypropylcellulose) (HPC) 110 % of control | dose: 80.0 mg/kg/injection, schedule: Q04DX003 (ip), vehicle: Klucel (hydroxypropylcellulose) (HPC) 110 % of control | dose: 120.0 mg/kg/injection, schedule: Q04DX003 (ip), vehicle: Klucel (hydroxypropylcellulose) (HPC) 100 % of control

CCCCCCCCCCCCCCCC(=O)OCCCCCCCCCC
inactive: dose: 25.0 mg/kg/injection, schedule: Q04DX003 (ip), vehicle: saline with Tween-80 100 % of control | dose: 50.0 mg/kg/injection, schedule: Q04DX003 (ip), vehicle: saline with Tween-80 100 % of control | dose: 100.0 mg/kg/injection, schedule: Q04DX003 (ip), vehicle: saline with Tween-80 100 % of control
